{
  "source": "patent US11918550B2",
  "about": "“Sensitization of cancer cells to differentiation therapy with mitochondrial uncoupler niclosamide ethanolamine” (The Board of Trustees of the Leland Stanford Junior …, priority 2020, dated 2024)",
  "key": {"[1]": {"system": "NB16 cells", "assay": "Western blot of β-catenin and p53", "assay_type": "cell-based", "settings": "NB16, 1 μM NEN 24 and 48 hrs", "procedure": "(§1) Protein extraction and immunoblot. Cells were washed with ice-cold PBS buffer (Invitrogen, 20012050) and lysed with harvest buffer (10 mM Hepes pH 7.9, 50 mM NaCl, 500 mM sucrose, 0.1 mM EDTA and 0.5% Trition X-100) supplemented with 1% Halt inhibitors (Thermo Scientific™, 78443) for 10 minutes. Cell lysate was centrifuged at 3000 rpm for 3 min at 4° C. The supernatant containing cytosolic proteins was transferred to a different tube. The pellet containing nuclear proteins was dissolved with nuclear lysis buffer (10 mM Hepes pH 7.9, 0.5M NaCl, 0.1 mM EDTA, 0.1 mM EGTA and 0.1% NP40) supplemented with 1% Halt inhibitors (Thermo Scientific™, 78443) for 5 minutes at 4° C. Then the solution was sonicated at 4° C. for 6 cycles (1 cycle=30 s sonication and 30 s cooldown with “High” energy intensity) using a Bioruptor® Plus sonication (Diagenode, UCD-300). After sonication, the solution was centrifuged at 15,000 rpm for 10 minutes. The supernatant was kept as nuclear extraction. Protein concentration was determined by BCA assay (Thermo Scientific, 23227). 5 μg nuclear proteins or 7.5 μg cytosolic proteins were boiled in loading buffer with reducing reagents (Invitrogen, NuPAGE™ LDS Sample Buffer (4X), NP0007), then separated with SDS-PAGE (Nupage™ 4-12% Bis-Tris Protein Gels, 1.0 mm, Invitrogen™, NP0322BOX). Protein was transferred onto a nitrocellulose membrane (Thermo Scientific™, 88018). After blocking in 5% non-fat milk for 30 minutes at room temperature (RT), the primary antibody was added for incubation overnight at 4° C. After washing with TBST (CST, #9997, 1:10 diluted by deionized water) for 3 times, HRP-conjugated secondary antibodies were applied. Signals were detected with an ECL kit (Thermo Scientific™, 34577) by using BioRad Universal Hood II."}, "[2]": {"system": "SK-N-BE(2) cells", "assay": "Western blot of β-catenin and p53", "assay_type": "cell-based", "settings": "1 μM NEN 24 and 48 hrs", "procedure": "as §1"}, "[3]": {"system": "neuroblastoma cells", "assay": "Cell proliferation (cell counting)", "assay_type": "cell-based", "settings": "1 μM NEN vs DMSO", "procedure": "Cell proliferation and clonogenic assay. 2×10^4 cells were seeded in 12 well-plate and allowed to attached overnight. […] After treatment, cells were counted using hemocytometer."}, "[4]": {"system": "HIF target genes such as pdk1, pdk3, pgk1 and Idha", "assay": "RT-PCR of HIF target genes", "assay_type": "cell-based", "settings": "SK-N-BE(2), 2 or 4 μM NEN, normoxia or hypoxia", "procedure": "RNA isolation, reverse transcription, and real-time PCR. The procedure was performed as described before. Briefly, total RNA was isolated from 60 mm tissue culture plates according to the TRIzol Reagent (Invitrogen, 15596026) protocol. 3 μg of total RNA was used in the reverse transcription reaction using the iScript cDNA synthesis kit (Bio-Rad). Quantitative PCR amplification was performed on the Prism 7900 Sequence Detection System (Applied Biosystems) using Taqman Gene Expression Assays (Applied Biosystems). Gene expression level were normalized to 18S rRNA."}, "[5]": {"system": "orthotopic neuroblastoma xenograft (SK-N-BE(2) cells)", "assay": "Metabolite levels in orthotopic xenograft tumors by LC/MS", "assay_type": "in vivo, mice", "settings": "diet 2000 ppm NEN vs control", "procedure": "Metabolic analysis. For the metabolomics and isotope tracing analysis in vitro, cells were washed with cold PBS, lysed in 80% Ultra LC-MS acetonitrile on ice for 15 minutes, centrifuged at 20,000 g for 10 minutes at 4° C., and supernatant was subjected to mass spectrometry analysis. For the metabolomics analysis in vivo, 10-20 mg tissue were cut off on ice, rinsed if necessary to remove blood, and place in a 2 ml round-bottom cryovial. The tissues were homogenized by 3 times 10 s on/off bursts homogenization in 1 ml 80% methanol on dry ice. Transfer the homogenate to an Eppendorf tube and keep on liquid nitrogen while processing the remaining samples. Incubated all the samples in −80° C. for 30 minutes. After incubation, vortexed the samples for 5 seconds. Then centrifuged the samples at 20,000 g for 10 minutes at 4° C., and supernatant was subjected to mass spectrometry analysis. Resuspend the remaining cellular pellet in 100 ul protein lysis buffer and determine the protein concentration. Then calculate the total protein content per sample.\nLiquid chromatography was performed using an Agilent 1290 Infinity LC system (Agilent, Santa Clara, US) coupled to a Q-TOF 6545 mass spectrometer (Agilent, Santa Clara, US). A hydrophilic interaction chromatography method (HILIC) with a BEH amide column (100×2.1 mm i.d., 1.7 μm; Waters) was used for compound separation at 35° C. with a flow rate of 0.3 ml/minutes. The mobile phase A consisted of 25 mM ammonium acetate and 25 mM ammonium hydroxide in water and mobile phase B was acetonitrile. The gradient elution was 0-1 minute, 85% B; 1-12 minutes, 85% B→65% B; 12-12.2 minutes, 65% B→40% B; 12.2-15 minutes, 40% B. After the gradient, the column was re-equilibrated at 85% B for 5 minutes. The overall runtime was 20 minutes, and the injection volume was 5 μL. […]\nMouse orthotopic neuroblastoma model. […] Tumor formation was monitored by non-invasive ultrasound measurements, and the animals euthanized when the tumor volume exceeded 1,000 mm^3."}},
  "data": [
    {"smiles": "O=C(Nc1ccc([N+](=O)[O-])cc1Cl)c1cc(Cl)ccc1O", "note": "[NEN, 5-chloro-N-(2-chloro-4-nitrophenyl)-2-hydroxybenzamide compound with 2-aminoethanol (1:1)]", "values": [
      {"measurement": "expression of p53", "setting": "[1]", "result": "increased"},
      {"measurement": "expression of β-catenin (nuclear protein)", "setting": "[1]", "result": "reduced"},
      {"measurement": "expression of p53", "setting": "[2]", "result": "increased"},
      {"measurement": "expression of β-catenin (nuclear protein)", "setting": "[2]", "result": "reduced"},
      {"measurement": "cell proliferation", "setting": "[3]", "result": "significantly inhibited"},
      {"measurement": "expression of HIF target genes such as pdk1, pdk3, pgk1 and Idha", "setting": "[4]", "result": "reduced"},
      {"measurement": "2-HG level in the tumor", "setting": "[5]", "result": "reduced"},
      {"measurement": "NAD+/NADH in the tumor", "setting": "[5]", "result": "increased"},
      {"measurement": "lactate level in the tumor", "setting": "[5]", "result": "slightly reduced"}
    ]}
  ]
}
